Experimental data as given in the supplement of paper PMC10307832.

Key:
Assay in all cases: relative viability (nuclei count vs DMSO), 5 days (fraction); higher = more cells survive
[1] = compound: CC1=NN=C(O1)C2=NN=C(C=C2)N3CCC(CC3)OC4=C(C=CC(=C4)F)Cl + CCNC(=O)c1noc(-c2cc(C(C)C)c(O)cc2O)c1-c1ccc(CN2CCOCC2)cc1 [Luminespib] (partner 0.01 µM)
How it was run: (§1)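 Lung cancer cell lines were pin-tool dosed in 1536-well plates on the day after seeding, with either a lone drug or a fixed anchor-drug dose plus five library-drug doses (not always all listed) in √10 steps. Nuclei were counted on 4× images after 5 days. Relative viability is the ratio of treated-well to vehicle-well nuclei counts, with each value a median of duplicate plates.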

Tosedostat + Luminespib = compound: CC(C)C[C@@H](C(=O)N[C@H](C(=O)OC1CCCC1)c1ccccc1)[C@H](O)C(=O)NO [Tosedostat] + CCNC(=O)c1noc(-c2cc(C(C)C)c(O)cc2O)c1-c1ccc(CN2CCOCC2)cc1 [Luminespib] (partner 0.01 µM)
How it was run: as §1

Tosedostat + Phenformin = compound: CC(C)C[C@@H](C(=O)N[C@H](C(=O)OC1CCCC1)c1ccccc1)[C@H](O)C(=O)NO [Tosedostat] + N=C(N)NC(=N)NCCc1ccccc1 [Phenformin] (partner 250 µM)
How it was run: as §1

[2] = compound: CC1=NN=C(O1)C2=NN=C(C=C2)N3CCC(CC3)OC4=C(C=CC(=C4)F)Cl + N=C(N)NC(=N)NCCc1ccccc1 [Phenformin] (partner 250 µM)
How it was run: as §1

## UMC-11
[1]; first compound 0.253 µM
  relative viability: 0.523
[1]; first compound 0.8 µM
  relative viability: 0.572
[1]; first compound 2.53 µM
  relative viability: 0.453
[1]; first compound 8 µM
  relative viability: 0.552
Tosedostat + Luminespib; first compound 0.02 µM
  relative viability: 1.01
Tosedostat + Luminespib; first compound 0.06325 µM
  relative viability: 0.999
Tosedostat + Luminespib; first compound 0.2 µM
  relative viability: 1.03
Tosedostat + Luminespib; first compound 0.6325 µM
  relative viability: 0.977
Tosedostat + Luminespib; first compound 2 µM
  relative viability: 1.12
Tosedostat + Phenformin; first compound 0.02 µM
  relative viability: 0.353
Tosedostat + Phenformin; first compound 0.06325 µM
  relative viability: 0.328
Tosedostat + Phenformin; first compound 0.2 µM
  relative viability: 0.298
Tosedostat + Phenformin; first compound 0.6325 µM
  relative viability: 0.282
Tosedostat + Phenformin; first compound 2 µM
  relative viability: 0.278
[2]; first compound 0.253 µM
  relative viability: 0.288
[2]; first compound 0.8 µM
  relative viability: 0.291
[2]; first compound 2.53 µM
  relative viability: 0.263
[2]; first compound 8 µM
  relative viability: 0.263
